# What was measured:
# HCV 1b replicon = HCV 1b replicon assay (luciferase reporter); assay type: cell-based, Hepatitis C virus genotype 1b-Con1; conditions: in vitro, relative to compound of FIG. 2A
# HCV 1a replicon = HCV 1a replicon assay (luciferase reporter); assay type: cell-based, Hepatitis C virus genotype 1a-H77; conditions: in vitro, relative to compound of FIG. 2A
structure (smiles),measurement,setting,value
CC(C)c1ccc2c(Nc3cc(C(=O)N[C@@H](C)c4ccccc4)ccc3Sc3ccc(N)cc3)ncnc2n1 [compound of FIG. 2B],increase in HCV replication inhibitory activities compared to the compound of FIG. 2A,HCV 1b replicon,over 600 fold
same,increase in HCV replication inhibitory activities compared to the compound of FIG. 2A,HCV 1a replicon,"over 1,000 fold"

# From patent US20110137633A1, “ANTI-VIRAL COMPOUNDS AND METHODS OF IDENTIFYING THE SAME” (ABBOTT LABORATORIES, priority 2009, published 2011)
